The test can be described thus: Test method of measuring skin temperature when smelling the aroma of the test sample. The format is in vivo, human. To be noted: females in their 20's, aroma smelled from soaked cotton, chest skin temperature as reference, 25 °C, humidity 45%; for effect of the aroma on the skin temperature of the cheek (change level with aroma minus change level with no aroma): samples 0.05-0.1 mass % in triethyl citrate or ethanol, FIG. 1. On the procedure: The present invention will be explained below in more detail with reference to examples. Test samples were prepared which were a dilution of an extract of Japanese peppermint by triethyl citrate to a concentration of 0.05 mass %, a dilution of an extract of juniper berry by triethyl citrate to a concentration of 0.1 mass %, a dilution of an extract of […] by triethyl citrate to a concentration of 0.05 mass %, a dilution of dihydro-β-ionol by ethanol to a concentration of 0.1 mass %, a dilution of geraniol by ethanol to a concentration of 0.1 mass %, and a dilution of 4-methoxystyrene by ethanol to a concentration of 0.5 mass %, and how the aromas of those test samples influenced a skin temperature was tested. In this example, test subjects were females in their 20's. Five test subjects for the extract of Japanese peppermint, seven test subjects for the extract of juniper berry, three test subjects for the extract of […] test subjects for dihydro-β-ionol, five test subjects for geraniol, and seven test subjects for 4-methoxystyrene participated in the tests. The test content was explained in advance to the test subjects, and the participation in the test was agreed in writing. The tests were carried out in a room at a constant temperature set to 25 ° C. and a constant humidity set to 45%. Skin temperature sensors were attached to a cheek of the test subject, a hand fingertip (middle finger), and a chest, and connected to a temperature monitor to successively measure the skin temperature. […] Skin temperature change levels of a cheek and those of a hand fingertip between when an aroma was smelled and when no aroma was smelled were compared with each other, and an effect of the aroma of the test sample to the skin temperature was evaluated. […] When this value is a positive one, it is determined that a skin temperature is raised and when this value is a negative one, it is determined that a skin temperature is lowered.

Turning to `C=Cc1ccc(OC)cc1` [4-methoxystyrene], the “effect of the aroma on the skin temperature of the hand fingertip (change level with aroma minus change level with no aroma)” value (middle finger, samples 0.05-0.5 mass % in triethyl citrate or ethanol, FIG. 2) is on record as “effect of raising the skin temperature of the hand fingertip”.
In the case of `CC(C)=CCC/C(C)=C/CO` [geraniol, Geraniol], the “effect of the aroma on the skin temperature of the cheek (change level with aroma minus change level with no aroma)” value is “effect of raising the skin temperature of the cheek”.
Still for that read-out and setting: the same measure for `CC1=C(CCC(C)O)C(C)(C)CCC1` (stereo not drawn) [dihydro-β-ionol, Dihydro-β-ionol]: “effect of raising the skin temperature of the cheek”.

Values taken from patent US20130149399A1, “SKIN TEMPERATURE ELEVATING AGENT, AND COSMETIC COMPOSITION, FOOD AND SUNDRY ARTICLE CONTAINING THE SAME” (SHISEIDO COMPANY ,LTD., priority 2010, published 2013).
